From patent US20240101570A1 (AMGEN INC., priority 2020, published 2024) come the findings set out here.

Assay [1] relates to HCT116 MTAP null cells. As to the kind of experiment: HCT116 MTAP null cell proliferation / viability (CellTiter-Glo, 6 days). It counts as cell-based. The note with it: HCT116-MTAP null, 144 h, HCT116 MTAP null cells, 6 days, CellTiter-Glo; read-out: HCT-116 MTAP null IC50. The method in brief:
(§1)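 CellTiter-Glo luminescence, 6-day exposure, RPMI 1640 + 10% FBS. Dosing: 1:3 series (8-9 pts, top 1 or 10 μM) or 1:2 series (22 pts, top 10 or 50 μM), DMSO control. IC50 = 50% of control via curve fit.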

Assay [2] has as its system HCT116 WT cells. Briefly: HCT116 WT cell proliferation / viability (CellTiter-Glo, 6 days). The settings on record: Homo sapiens, HCT-116, 144 h, HCT116 WT cells, 6 days, CellTiter-Glo; read-out: HCT-116 WT IC50. It is filed as cell-based. The method in brief: as §1
Background: ATP-based viability assays read luminescence as a measure of living cells.

Where only a bound is given, the exact number is not on record here.

One may read the IC50 as the concentration that inhibits the measured activity by half.

In the case of `Nc1nc2ccc(C(=O)N(Cc3ccc(C(F)(F)F)cn3)CC3CC3)cc2c2c1COC2` [Example 300, 4-amino-N-(cyclopropylmethyl)-N-[[5-(trifluoromethyl)-2-pyridyl]methyl]-1,3-dihydrofuro[3,4-c]quinoline-8-carboxamide], the IC50 is 41 nM in assay [1] and 1340 nM in assay [2].

Turning to `CCN(Cc1ccc(S(F)(F)(F)(F)F)cc1)C(=O)c1cc2c(cc1F)nc(N)c1cnn(C)c12` [Example 566, 4-amino-N-ethyl-7-fluoro-1-methyl-N-(4-(pentafluoro-lambda~6~-sulfanyl)benzyl)-1H-pyrazolo[4,3-c]quinoline-8-carboxamide], the IC50 in assay [1] turned out to be 13 nM; in assay [2], 181 nM.

For `Cn1ncc2c(N)nc3cc(F)c(C(=O)N(Cc4ccc(C(F)(F)F)cn4)C4CC4)cc3c21` [Example 803, 4-amino-N-cyclopropyl-7-fluoro-1-methyl-N-((5-(trifluoromethyl)-2-pyridinyl)methyl)-1H-pyrazolo[4,3-c]quinoline-8-carboxamide], the IC50 in assay [1] came out at 12 nM; in assay [2], 384 nM.

As to `CC1OCc2c1c(N)nc1ccc(C(=O)N(Cc3ccc(C#N)cn3)C3CCCC3C#N)cc21` (stereo not shown) [Example 898, 4-amino-N-(2-cyanocyclopentyl)-N-((5-cyanopyridin-2-yl)methyl)-3-methyl-1,3-dihydrofuro[3,4-c]quinoline-8-carboxamide], the IC50 is 52 nM in assay [1] and 290 nM in assay [2].

On to `CN(Cc1ccc(C(F)(F)F)nn1)C(=O)c1cc2c(cc1Cl)nc(N)c1cnn(C)c12` [Example 792, 4-amino-7-chloro-N,1-dimethyl-N-((6-(trifluoromethyl)-3-pyridazinyl)methyl)-1H-pyrazolo[4,3-c]quinoline-8-carboxamide], for which the results for the IC50 in assay [1] and in assay [2] were 30 nM and 2330 nM, respectively.

As to `CO[C@@H]1CCOC[C@H]1N(Cc1ccc(C(F)(F)F)cn1)C(=O)c1ccc2nc(N)c3c(c2c1)COC3` (single isomer, unassigned) [Example 586], the IC50 in assay [1] was 12 nM; in assay [2], 150 nM.

Turning to `N#Cc1ccc(CN(CC2CC2)C(=O)c2ccc3nc(N)c4c(c3c2)COC4)nc1` [Example 325, 4-amino-N-((5-cyano-2-pyridinyl)methyl)-N-(cyclopropylmethyl)-1,3-dihydrofuro[3,4-c]quinoline-8-carboxamide], the IC50 in assay [1] is 73 nM; in assay [2], 2280 nM.

For `C[C@H](c1ccc(C(F)(F)F)cn1)N(C(=O)c1ccc2nc(N)c3c(c2c1)COC3)C1CC1` [Example 736, 4-amino-N-cyclopropyl-N-((1R)-1-(5-(trifluoromethyl)-2-pyridinyl)ethyl)-1,3-dihydrofuro[3,4-c]quinoline-8-carboxamide], the values for the IC50 in assay [1] and in assay [2] were 127 nM and 4890 nM, respectively.

Turning to `C[C@H]1OCc2c1c(N)nc1cnc(C(=O)N(C)Cc3ccc(C(F)(F)F)cn3)cc21` [Example 411, (3R)-4-amino-N,3-dimethyl-N-((5-(trifluoromethyl)-2-pyridinyl)methyl)-1,3-dihydrofuro[3,4-c][1,7]naphthyridine-8-carboxamide], the IC50 in assay [1] turned out to be 181 nM; in assay [2] it was 13600 nM.

On to `CCN(Cc1ccc(C(F)(F)F)cn1)C(=O)c1cc2c3c(c(N)nc2cc1F)COC3` [Example 419, 4-amino-N-ethyl-7-fluoro-N-((5-(trifluoromethyl)-2-pyridinyl)methyl)-1,3-dihydrofuro[3,4-c]quinoline-8-carboxamide], for which the IC50 in assay [1] is 152 nM; in assay [2], 3790 nM.

Turning to `Nc1nc2ccc(C(=O)N(Cc3ccc(C(F)(F)F)nn3)C3CC3)cc2c2c1COC2` [Example 661, 4-amino-N-cyclopropyl-N-((6-(trifluoromethyl)-3-pyridazinyl)methyl)-1,3-dihydrofuro[3,4-c]quinoline-8-carboxamide], the IC50 in assay [1] amounted to 303 nM; in assay [2] it was 26200 nM.

Consider `CN(Cc1ccc(S(F)(F)(F)(F)F)cc1O)C(=O)c1cc2c3c(c(N)nc2cc1F)COC3` [Example 576, 4-amino-7-fluoro-N-(2-hydroxy-4-(pentafluoro-lambda~6~- sulfanyl)benzyl)-N-methyl-1,3-dihydrofuro[3,4-c]quinoline-8-carboxamide], for which the results for the IC50 in assay [1] and in assay [2] were 107 nM and 2080 nM, respectively.

In the case of `Cn1ncc2c(N)nc3cc(F)c(C(=O)N(Cc4cocn4)C4CCC4)cc3c21` [Example 801, 4-amino-N-cyclobutyl-7-fluoro-1-methyl-N-(1,3-oxazol-4-ylmethyl)-1H-pyrazolo[4,3-c]quinoline-8-carboxamide], the IC50 in assay [1] amounted to 153 nM; in assay [2], 13600 nM.

Take `CN(Cc1ccc(-c2cnn(C(F)(F)F)c2)cn1)C(=O)c1cc2c(cc1F)nc(N)c1cnn(C)c12` [Example 789, 4-amino-7-fluoro-N,1-dimethyl-N-((5-(1-(trifluoromethyl)-1H-pyrazol-4-yl)-2-pyridinyl)methyl)-1H-pyrazolo[4,3-c]quinoline-8-carboxamide]: the IC50 was 83 nM in assay [1] and 6930 nM in assay [2].

Turning to `Cn1ncc2c(N)nc3cc(F)c(C(=O)N(Cc4ccc(C(F)(F)F)cn4)C4CCC4)cc3c21` [Example 807, 4-amino-N-cyclobutyl-7-fluoro-1-methyl-N-((5-(trifluoromethyl)-2-pyridinyl)methyl)-1H-pyrazolo[4,3-c]quinoline-8-carboxamide], the IC50 in assay [1] is 5 nM; in assay [2], 114 nM.

As for `C[C@@H](c1ccc(C(F)(F)F)cn1)N(C)C(=O)c1cc2c(cc1F)nc(N)c1cnn(C)c12` (single isomer, unassigned) [Example 603], the IC50 in assay [1] was 276 nM; in assay [2], 11800 nM.

Take `C[C@H]1OCc2c1c(N)nc1ccc(C(=O)N(C)Cc3ccc(Br)cn3)cc21` [Example 328, (3R)-4-amino-N-((5-bromo-2-pyridinyl)methyl)-N,3-dimethyl-1,3-dihydrofuro[3,4-c]quinoline-8-carboxamide]: the IC50 in assay [1] turned out to be 129 nM; in assay [2], 19400 nM.

`COCC(C)N(Cc1ccc(C(F)(F)F)nn1)C(=O)c1cc2c3c(c(N)nc2cn1)[C@@H](C)OC3` (mixture of isomers) [Example 314, (3R)-4-amino-N-((2R)-1-methoxy-2-propanyl)-3-methyl-N-((6-(trifluoromethyl)-3-pyridazinyl)methyl)-1,3-dihydrofuro[3,4-c][1,7]naphthyridine-8-carboxamide and (3R)-4-amino-N-((2S)-1-methoxy-2-propanyl)-3-methyl-N-((6-(trifluoromethyl)-3-pyridazinyl)methyl)-1,3-dihydrofuro[3,4-c][1,7]naphthyridine-8-carboxamide]: the IC50 in assay [1] was found to be 254 nM; in assay [2], 15200 nM.

Take `CCN(C(=O)c1cc2c(cc1F)nc(N)c1cnn(C)c12)[C@@H](C)c1ccc(F)cn1` (single isomer, unassigned) [Example 876]: the IC50 in assay [1] turned out to be 334 nM; in assay [2], 30400 nM.

As for `CC(C)N(Cc1ccc(C2CC2)cn1)C(=O)c1cc2c3c(c(N)nc2cn1)[C@H](C)OC3` [Example 407, (3S)-4-amino-N-((5-cyclopropyl-2-pyridinyl)methyl)-3-methyl-N-(2-propanyl)-1,3-dihydrofuro[3,4-c][1,7]naphthyridine-8-carboxamide], the IC50 in assay [1] is 3660 nM; in assay [2], more than 10000 nM.
